Some test systems named below: SF-295 CNS; UACC-257 melanoma; RXF 393 renal; OVCAR-8 ovarian; OVCAR-4 ovarian; COLO 205 colon; UO-31 renal; NCI/ADR-RES ovarian; SK-MEL-28 melanoma; A549 NSCLC; MDA-MB-435; NCI-H460 lung; SK-OV-3 ovarian; MALME-3M melanoma; MOLT-4 leukemia.
Holding throughout (assay): inhibition of tumour cell growth, NCI panel, 48 h

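Exposure lasted 48 hours, with cells grown in 96-well plates and compounds tested at five concentrations. TGI marks complete inhibition of growth.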

On to `COCN1C(=O)[C@@H]2CCCN2C(=O)c2cc(Cl)ccc21`, for which the TGI in the assay on SF-295 CNS, in the assay on UACC-257 melanoma, in the assay on RXF 393 renal, with OVCAR-8 ovarian, in the assay on OVCAR-4 ovarian and in the assay on COLO 205 colon was > 100 µM throughout. The TGI in the assay on UO-31 renal, in the assay with NCI/ADR-RES ovarian, with SK-MEL-28 melanoma, with A549 NSCLC, in the assay with MDA-MB-435 and in the assay on NCI-H460 lung was > 100 µM each time. The TGI in the assay on SK-OV-3 ovarian, with MALME-3M melanoma and in the assay with MOLT-4 leukemia was > 100 µM each time.

Turning to `CC1C(=O)CC[C@@]2(C)C(=O)CCCC12O` (some centres not stated), the TGI with SF-295 CNS, with UACC-257 melanoma, in the assay with RXF 393 renal, with OVCAR-4 ovarian, in the assay with COLO 205 colon and in the assay on UO-31 renal was > 100 µM each time. Moreover, the TGI with NCI/ADR-RES ovarian, in the assay with SK-MEL-28 melanoma, with A549 NSCLC, with MDA-MB-435, with NCI-H460 lung and in the assay with SK-OV-3 ovarian was > 100 µM throughout. Besides, the TGI in the assay on MALME-3M melanoma and in the assay with MOLT-4 leukemia was > 100 µM throughout.

`COC(=O)C1=C(OC(=O)/C(=C/c2c(F)cccc2F)c2ccccc2)C(C(=O)OC)[C@@]2(O)[C@@H](C(=O)OC)[C@H](C)C[C@@H]1[C@@H]2C(=O)OC` (some centres not stated): the TGI in the assay with SF-295 CNS, with UACC-257 melanoma, in the assay with RXF 393 renal, with OVCAR-8 ovarian, in the assay on OVCAR-4 ovarian and in the assay on COLO 205 colon was > 100 µM each time. Besides, the TGI with UO-31 renal was 8.26 µM; with NCI/ADR-RES ovarian it was > 100 µM; with SK-MEL-28 melanoma it was > 100 µM; in the assay on A549 NSCLC it was > 100 µM; with MDA-MB-435, > 100 µM; in the assay on NCI-H460 lung it was > 100 µM. The TGI in the assay with SK-OV-3 ovarian, in the assay with MALME-3M melanoma and with MOLT-4 leukemia was > 100 µM throughout.

`Cc1cccc2c(N)c3cccc(C(=O)NCCN4CCOCC4)c3nc12`: the TGI was 10.9 µM with SF-295 CNS; 7.81 µM with UACC-257 melanoma; 2.62 µM in the assay with RXF 393 renal; 6.69 µM in the assay with OVCAR-4 ovarian; 2.49 µM in the assay with COLO 205 colon; 8.26 µM in the assay on UO-31 renal. The TGI with NCI/ADR-RES ovarian amounted to 42.8 µM; with SK-MEL-28 melanoma it was 6.29 µM; with A549 NSCLC it was 7.92 µM; with MDA-MB-435 it was 2.12 µM; in the assay on NCI-H460 lung it was 14 µM; in the assay on SK-OV-3 ovarian it was 16.9 µM. Besides, the TGI amounted to 1.31 µM in the assay with MALME-3M melanoma and 1.71 µM in the assay on MOLT-4 leukemia.

Take `COc1cc(S(=O)(=O)Nc2ccc(-c3csc(/N=C\C=C\c4ccccc4)n3)cc2)ccc1Cl`: the TGI with SF-295 CNS is > 100 µM; in the assay with UACC-257 melanoma, > 100 µM; with RXF 393 renal, 80.2 µM; with OVCAR-8 ovarian, > 100 µM; in the assay on OVCAR-4 ovarian it was > 100 µM; in the assay with COLO 205 colon, > 100 µM. The TGI in the assay with UO-31 renal, with NCI/ADR-RES ovarian, with SK-MEL-28 melanoma, with A549 NSCLC, in the assay with MDA-MB-435 and in the assay with NCI-H460 lung was > 100 µM throughout. Also, the TGI in the assay on SK-OV-3 ovarian, in the assay on MALME-3M melanoma and in the assay with MOLT-4 leukemia was > 100 µM in each case.

For the compound `CCCCCCCCCCCCCCCCNc1ccc2c(c1)OCCOCCOCCOCCO2`, the TGI in the assay on SF-295 CNS turned out to be 7.94 µM; in the assay on UACC-257 melanoma it was 6.91 µM; in the assay on RXF 393 renal, 5.58 µM; in the assay on OVCAR-8 ovarian, 10.8 µM; with OVCAR-4 ovarian, 17.6 µM; in the assay on COLO 205 colon it was 3.18 µM. Moreover, the TGI in the assay with UO-31 renal amounted to 8.88 µM; in the assay on NCI/ADR-RES ovarian, 6.4 µM; with SK-MEL-28 melanoma, 18.8 µM; in the assay on A549 NSCLC, 14.5 µM; with MDA-MB-435, 11.1 µM; with NCI-H460 lung, 10.7 µM. In addition, the TGI was found to be 9.49 µM in the assay with SK-OV-3 ovarian, 13.6 µM in the assay on MALME-3M melanoma and 6.19 µM with MOLT-4 leukemia.

Turning to `Cc1ccc(C(=O)c2[nH]c(Nc3ccc(Cl)cc3)c(C(=S)Nc3ccccc3)c2N)cc1`, the TGI in the assay with SF-295 CNS was determined as 5.27 µM; with UACC-257 melanoma, 43.7 µM; in the assay on RXF 393 renal, 17.4 µM; in the assay with OVCAR-8 ovarian, 18.1 µM; in the assay with OVCAR-4 ovarian, 4.32 µM; in the assay with COLO 205 colon it was 2.84 µM. In addition, the TGI is 23 µM in the assay on UO-31 renal; 17.1 µM in the assay on NCI/ADR-RES ovarian; 14.5 µM with SK-MEL-28 melanoma; 5.29 µM in the assay on A549 NSCLC; 19.7 µM in the assay with MDA-MB-435; 15.4 µM with NCI-H460 lung. In addition, the TGI with SK-OV-3 ovarian is 27.3 µM; with MALME-3M melanoma it was 19.8 µM; in the assay with MOLT-4 leukemia it was 32.6 µM.

On to `Cc1ccc(C2SC(N)=Nc3c2c(C)nn3C(=O)c2ccc(Cl)cc2)cc1` (configuration not stated), for which the TGI in the assay on SF-295 CNS, in the assay on UACC-257 melanoma, in the assay with RXF 393 renal, with OVCAR-8 ovarian, with OVCAR-4 ovarian and in the assay on COLO 205 colon was > 10 µM throughout. For the same compound, the TGI in the assay with NCI/ADR-RES ovarian, in the assay with SK-MEL-28 melanoma, in the assay on A549 NSCLC, in the assay with MDA-MB-435, in the assay on NCI-H460 lung and with SK-OV-3 ovarian was > 10 µM in each case. The TGI with MALME-3M melanoma and with MOLT-4 leukemia was > 10 µM each time.

`O=C1Cc2c(-c3ccccc3)cc(-c3ccc4ccccc4c3)nc2-c2ccccc2N1`: the TGI in the assay on SF-295 CNS is > 100 µM; in the assay on UACC-257 melanoma, > 100 µM; in the assay on RXF 393 renal it was 13.1 µM; in the assay with OVCAR-8 ovarian, 4.9 µM; in the assay with OVCAR-4 ovarian it was > 100 µM; with COLO 205 colon, > 100 µM. Further, the TGI in the assay with UO-31 renal is > 100 µM; in the assay with NCI/ADR-RES ovarian it was > 100 µM; in the assay on SK-MEL-28 melanoma, > 100 µM; with A549 NSCLC it was > 100 µM; with MDA-MB-435, > 100 µM; in the assay with NCI-H460 lung, 87.6 µM. Moreover, the TGI in the assay with SK-OV-3 ovarian is > 100 µM; in the assay with MALME-3M melanoma, 31.9 µM; in the assay with MOLT-4 leukemia, > 100 µM.

For the origin of these results see PubChem BioAssay (NCI).
